Experimental data from article PMC11653257, “Organometallic Half-Sandwich Complexes of 8-Hydroxyquinoline-Derived Mannich Bases with Enhanced Solubility: Targeting Multidrug Resistant Cancer” (Inorganic Chemistry, 2024).
≈ marks a conversion by molar mass, not a printed value. Where two headings read alike, the source gives them in different places.

Tests used:
[1] = Ligand displacement with 2,2′-bipyridine, conditional formation constant; type: physicochemical; conditions: pH 7.4; bpy competitor; UV–vis
Text: These pKa (H2O) values are lower than those of the complexes formed with the corresponding amino acid hybrids (HQCl-D-Pro, HQCl-D-hPro, Figure S23). Thus, the predominant complex at pH 7.4 is [M(arene)(HL)(H2O)]^2+ in all cases, in which the bidentate ligand coordinates via the (N,O^–) donor set and the pyridinium or pyrrolidinium nitrogens are protonated just like in the isolated complexes (Chart 3). Based on the unchanged spectra (vide supra), these types of complexes show no dissociation at pH = 2, indicating their high stability and hindering the direct determination of the formation constants. Therefore, a ligand displacement experiment was performed using UV–vis spectrophotometry with 2,2′-bipyridine (bpy) as a competitor to determine conditional formation constants at pH = 7.4 (Figure S25). […] Nevertheless, these values indicate a high stability of the complexes in solution, and <1% of dissociation is estimated at 1 μM concentration at pH = 7.4. The ligand displacement measurement could not be applied to the RuCym complexes due to the release of the p-cymene ring followed by the formation of the mixed ligand complex with bpy and oxidation of the metal center (Figure S26), similarly to analogue complexes.[14],[26],[27]

[2] = test system: MES-SA; assay: Cytotoxicity in triple coculture, MES-SA mCherry; type: cell-based, human; conditions: MES-SA/B1, MES-SA/Dx5, 144 h
Protocol: Cell lines were purchased from the American Type Culture Collection (ATCC). MES-SA/B1 is a human MDR1-transfected derivative of MES-SA, and MES-SA mCherry, MES-SA/B1 mOrange, and MES-SA/Dx5 eGFP were engineered to stably express the respective fluorescent proteins previously.[62] Cells were kept in culture medium (DMEM) supplemented with 10% fetal bovine serum, 2 mM L-glutamine, 100 units/mL penicillin, and 100 μg/mL streptomycin (Thermo Fisher). One week before use, MES-SA/Dx5 eGFP cells were treated with 0.5 μM doxorubicin to ensure ABCB1/P-gp expression.
The tested compounds were dissolved in 50% (v/v) DMSO/PBS’ buffer to prepare 5–10 mM stock solutions, which were diluted in complete culture medium. Constitutive expression of the fluorescent proteins allowed multiplexing in cytotoxicity experiments.[62] Cells were mixed before seeding in 384-well plates: in double cocultures, MES-SA mCherry and MES-SA/Dx5 eGFP cells were seeded at 1250–1250 cells/well (in total 2500 cells/well); while in triple cocultures, MES-SA mCherry, MES-SA/Dx5 eGFP and MES-SA/B1 mOrange cells were seeded at 800–800–800 cells/well (in total 2400 cells/well). Serial dilutions of the compounds were added 24 h after seeding. To address the effect of P-gp function, TQ was added at a nontoxic concentration (0.4 μM) 15 min before the test compounds. The intensity of the fluorescent proteins, which is proportional to cell mass, was measured after 144 h of incubation at the respective fluorescent channels (excitation/emission: eGFP: 485 nm/510 nm; mOrange: 545 nm/567 nm; mCherry: 585 nm/610 nm). pIC50 values were calculated by a custom program written by Judit Sessler in C#.[62] IC50 values and standard deviation were calculated from average pIC50 values from at least 3 independent measurements.

[3] = H2O/Cl– coligand exchange by UV–vis titration with chloride ions; type: physicochemical; conditions: RhCp* complexes titrated at pH 7.4
Protocol: When the isolated complexes (1–4) are dissolved in water, their chlorido coligand can be replaced by water, or vice versa in the aqua complexes [M(arene)(HL)(H2O)]^2+, the H2O → Cl^– exchange process can take place in the presence of chloride ions. The chloride ion affinity of the complexes was also investigated by UV–vis spectrophotometry. RhCp* and RuCym complexes were titrated with chloride ions at pH 7.4 and 6.0, respectively. For this experiment, pH values were chosen at which the formation of the mixed hydroxido species is negligible. A representative spectrum series for complex (4) is shown in Figure S27, and the calculated conditional exchange constants (logK’ (H2O/Cl^–)) are given in Table 2 and in Figure S23. […] The complexes of the amino acid hybrids HQCl-D-Pro and HQCl-D-hPro have lower logK’ (H2O/Cl^–) constants most likely due to the repulsive effect of the nearby COO^– group.[26]

[4] = pKa of in situ prepared complexes by pH-potentiometry; type: physicochemical; conditions: I = 0.20 M KNO3
Text: The results, shown in Table 2, indicate good agreement between the data obtained by the different methods. It should be noted that these processes show overlap in all cases, and therefore, the assignment of the pKa values to the given moieties cannot be made reliably. However, by comparing the spectral changes with those observed for HQ and other simple derivatives,[25] it can be concluded that the lower pKa likely belongs to the deprotonation of the aqua coligand.
The pH-potentiometric measurements were carried out at 25.0 ± 0.1 °C in water in the pH range between 2.0 and 11.5 and at a constant ionic strength of 0.20 M KNO3. The titrations were performed in a carbonate-free KOH solution (0.20 M). The exact concentrations of the HNO3 and KOH solutions were determined by pH-potentiometric titrations. An Orion 710A pH-meter equipped with a Metrohm combined electrode (type 6.0234.100) and a Metrohm 665 Dosimat buret were used for this purpose. […] The average water ionization constant, pKw, was determined as 13.76 ± 0.01, which is in good agreement with the literature data.[67] The initial volume of the samples was 10.0 mL. […] Samples were degassed by bubbling purified argon through them for about 10 min prior to the measurements, and the inert gas was also passed over the solutions during the titrations. The computer program Hyperquad2013[64] was utilized to establish the stoichiometry of the species and to calculate the equilibrium constants.

[5] = test system: A431; parameters: method as in earlier work; conditions: monoculture, 72 h, PrestoBlue; ref SI3; cited from earlier work
[6] = test system: MES-SA/Dx5; conditions: monoculture, ref SI3, cited from earlier work
[7] = Thermodynamic aqueous solubility at pH 7.4; type: physicochemical; conditions: 10 mM HEPES buffer, thermodynamic from solid, pH 7.4 (10 mM HEPES), 25.0 °C, read-out: thermodynamic aqueous solubility S7.4
Protocol: The concentration of the compounds was determined by UV–vis spectrophotometry. For calibration, stock solutions of the compounds were used with known concentrations dissolved in 100% DMSO, 75% DMSO, and 50% (v/v) DMSO/buffered aqueous solutions.

| Molecule | logK’ [M(arene)L]7.4 conditional formation constant [1] | IC50 [2] | logK’ (H2O/Cl–) [3] | pKa (H2O) [4] | pKa (Npyr/pipH+) [4] | IC50 [5] | IC50 ([6]; PrestoBlue) | SR (MES-SA / MES-SA/Dx5) ([6]; + 1 µM TQ) | SR (MES-SA / MES-SA/Dx5) [6] | solubility thermodynamic [7] |
| --- | --- | --- | --- | --- | --- | --- | --- | --- | --- | --- |
| [RhCp*(HQCl-Pip)Cl]Cl [(3)] | 11.89 ± 0.03 | 2.11 µM | 2.21 ± 0.03 | 9.39 ± 0.07 | 10.41 ± 0.10 | – | – | – | – | – |
| Oc1c(CN2CCCCC2)cc(Cl)c2cccnc12 [HQCl-pip, 5-chloro-7-(piperidin-1-ylmethyl)quinolin-8-ol] | – | – | – | – | – | 6.67 ± 1.69 µM | 0.29 ± 0.05 µM | 1.31 | 8.71 | 254 ± 3 µM (≈ 70.3 µg/mL) |
